Test results: patent US12655150B2 (Cedilla Therapeutics, Inc., priority 2021, dated 2026)

tested on: NCI-H226; experiment: 72H TEAD Proliferation Assay (Cell Titer Glo 2.0); assay type: cell-based; details: Homo sapiens, NCI-H226, 72 h, CTG 2.0, cell line not given (NCI-H226 responsive, NCI-H28 non-responsive)
In short: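 NF2-deficient NCI-H226 mesothelioma cells, TEAD-dependent, treated 72 h; NF2-wild-type NCI-H28 serves as the TEAD-independent counter-screen for off-target cytotoxicity. Viable cells quantified by CellTiter-Glo 2.0 luminescence; background and time-zero signal subtracted, GI50 from nonlinear dose-response fit.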

Row | SMILES | GI50
1 | O=C(O)c1ccc2c(c1)nc(-c1cnc(C(F)(F)F)cn1)c1cccn12 [I-198, 4-(5-(trifluoromethyl)pyrazin-2-yl)pyrrolo[1,2-a]quinoxaline-7-carboxylic acid] | 1000 to 5000 nM
2 | O=C(O)c1ccc2c(c1)nc(-c1ccc(C(F)(F)F)cc1C(F)(F)F)c1cccn12 [I-199, 4-(2,4-bis(trifluoromethyl)phenyl)pyrrolo[1,2-a]quinoxaline-7-carboxylic acid] | 1000 to 5000 nM
3 | O=C(O)c1ccc2c(c1)nc(-c1c(Cl)cc(C(F)(F)F)cc1Cl)c1cccn12 [I-201, 4-(2,6-Dichloro-4-(trifluoromethyl)phenyl)pyrrolo[1,2-a]quinoxaline-7-carboxylic acid] | 5000 to 10000 nM
4 | C=CC(=O)Nc1ccc2c(c1)nc(-c1ccc(C(F)(F)F)cn1)c1cccn12 [I-202, N-(4-(5-(trifluoromethyl)pyridin-2-yl)pyrrolo[1,2-a]quinoxalin-7-yl)acrylamide] | ≤ 1000 nM
5 | CC(C)(C)c1ccc(-c2nc3cc(NC(=O)CO)ccc3n3cccc23)cc1 [I-203, N-(4-(4-(tert-butyl)phenyl)pyrrolo[1,2-a]quinoxalin-7-yl)-2-hydroxyacetamide] | 1000 to 5000 nM
6 | CC(O)C(=O)Nc1ccc2c(c1)nc(-c1ccc(C(C)(C)C)cc1)c1cccn12 (centres unmarked) [I-204, N-(4-(4-(tert-Butyl)phenyl)pyrrolo[1,2-a]quinoxalin-7-yl)-2-hydroxypropanamide] | 1000 to 5000 nM
7 | CN(C)CC(=O)Nc1ccc2c(c1)nc(-c1ccc(C(C)(C)C)cc1)c1cccn12 [I-205, N-(4-(4-(tert-butyl)phenyl)pyrrolo[1,2-a]quinoxalin-7-yl)-2-(dimethylamino)acetamide] | 1000 to 5000 nM
8 | CC(C)(C)c1ccc(-c2nc3cc(NC(=O)CN)ccc3n3cccc23)cc1 [I-206, 2-Amino-N-(4-(4-(tert-butyl)phenyl)pyrrolo[1,2-a]quinoxalin-7-yl)acetamide] | 1000 to 5000 nM
9 | CC(C)(C)c1ccc(-c2nc3cc(NC(=O)c4ccccn4)ccc3n3cccc23)cc1 [I-207, N-(4-(4-(tert-butyl)phenyl)pyrrolo[1,2-a]quinoxalin-7-yl)picolinamide] | 5000 to 10000 nM
10 | O=C(/C=C/CF)NCc1cn2ccnc2c(-c2ccc(C(F)(F)F)cc2)n1 [I-214, (E)-4-fluoro-N-((8-(4-(trifluoromethyl)phenyl)imidazo[1,2-a]pyrazin-6-yl)methyl)but-2-enamide] | ≤ 1000 nM
11 | C=C(F)C(=O)NCc1cc2ccccc2c(-c2ccc(C(C)(C)C)cc2)n1 [I-215, N-((1-(4-(tert-butyl)phenyl)isoquinolin-3-yl)methyl)-2-fluoroacrylamide] | ≤ 1000 nM
12 | COC/C=C/C(=O)NCc1cn2ccnc2c(-c2ccc(C(F)(F)F)cc2)n1 [I-219, (E)-4-methoxy-N-((8-(4-(trifluoromethyl)phenyl)imidazo[1,2-a]pyrazin-6-yl)methyl)but-2-enamide] | 1000 to 5000 nM
13 | C=CC(=O)NC1CCN(c2cn3ccnc3c(-c3ccc(C(F)(F)F)cc3)n2)C1 (centres unmarked) [I-227, N-(1-(8-(4-(trifluoromethyl)phenyl)imidazo[1,2-a]pyrazin-6-yl)pyrrolidin-3-yl)acrylamide] | ≤ 1000 nM
14 | O=C(O)C1CCN(c2cn3ccnc3c(-c3ccc(C(F)(F)F)cc3)n2)C1 (centres unmarked) [I-234, 1-(8-(4-(Trifluoromethyl)phenyl)imidazo[1,2-a]pyrazin-6-yl)pyrrolidine-3-carboxylic acid] | 5000 to 10000 nM
15 | C=CC(=O)NCc1cn2c(F)cnc2c(-c2ccc(C(F)(F)F)cc2)n1 [I-235, N-((3-fluoro-8-(4-(trifluoromethyl)phenyl)imidazo[1,2-a]pyrazin-6-yl)methyl)acrylamide] | ≤ 1000 nM
16 | C=CC(=O)NCc1cn2ncnc2c(-c2ccc(C(F)(F)F)cc2)n1 [I-236, N-((8-(4-(Trifluoromethyl)phenyl)-[1,2,4]triazolo[1,5-a]pyrazin-6-yl)methyl)acrylamide] | ≤ 1000 nM
17 | N#CNCc1cn2ccnc2c(-c2ccc(C(F)(F)F)cc2)n1 [I-238, N-((8-(4-(Trifluoromethyl)phenyl)imidazo[1,2-a]pyrazin-6-yl)methyl)cyanamide] | 1000 to 5000 nM
18 | CN(C#N)Cc1cn2ccnc2c(-c2ccc(C(F)(F)F)cc2)n1 [I-239, N-methyl-N-((8-(4-(trifluoromethyl)phenyl)imidazo[1,2-a]pyrazin-6-yl)methyl)cyanamide] | 1000 to 5000 nM
19 | C=CC(=O)NCc1cn2cc(C)nc2c(-c2ccc(C(F)(F)F)cc2)n1 [I-241, N-((2-methyl-8-(4-(trifluoromethyl)phenyl)imidazo[1,2-a]pyrazin-6-yl)methyl)acrylamide] | ≤ 1000 nM
20 | C=CC(=O)N1CC(c2cn3ccnc3c(-c3ccc(C(F)(F)F)cc3)n2)C1 [I-245, 1-(3-(8-(4-(Trifluoromethyl)phenyl)imidazo[1,2-a]pyrazin-6-yl)azetidin-1-yl)prop-2-en-1-one] | ≤ 1000 nM
21 | C=CC(=O)NCc1cn2c(C(F)(F)F)cnc2c(-c2ccc(C(F)(F)F)cc2)n1 [I-246, N-((3-(trifluoromethyl)-8-(4-(trifluoromethyl)phenyl)imidazo[1,2-a]pyrazin-6-yl)methyl)acrylamide] | ≤ 1000 nM

Row | SMILES | GI50
22 | C=CC(=O)NCc1cn2cc(C(F)(F)F)nc2c(-c2ccc(C(F)(F)F)cc2)n1 [I-247, N-((2-(trifluoromethyl)-8-(4-(trifluoromethyl)phenyl)imidazo[1,2-a]pyrazin-6-yl)methyl)acrylamide] | ≤ 1000 nM
23 | Cc1cn2cc(CNC(=O)/C=C/CF)nc(-c3ccc(C(F)(F)F)cc3)c2n1 [I-248, (E)-4-fluoro-N-((2-methyl-8-(4-(trifluoromethyl)phenyl)imidazo[1,2-a]pyrazin-6-yl)methyl)but-2-enamide] | ≤ 1000 nM
24 | O=C(/C=C/CF)NCc1cn2c(F)cnc2c(-c2ccc(C(F)(F)F)cc2)n1 [I-249, (E)-4-Fluoro-N-((3-fluoro-8-(4-(trifluoromethyl)phenyl)imidazo[1,2-a]pyrazin-6-yl)methyl)but-2-enamide] | ≤ 1000 nM
25 | C=CC(=O)NCC(=C)c1cn2ccnc2c(-c2ccc(C(F)(F)F)cc2)n1 [I-250, N-(2-(8-(4-(trifluoromethyl)phenyl)imidazo[1,2-a]pyrazin-6-yl)allyl)acrylamide] | ≤ 1000 nM
26 | C=CC(=O)NC(C)(CO)c1cn2ccnc2c(-c2ccc(C(F)(F)F)cc2)n1 (centres unmarked) [I-251, N-(1-hydroxy-2-(8-(4-(trifluoromethyl)phenyl)imidazo[1,2-a]pyrazin-6-yl)propan-2-yl)acrylamide] | ≤ 1000 nM
27 | C=CC(=O)Nc1ccc2c(C)cc(-c3ccc(C(F)(F)F)cn3)nc2c1 [I-252, N-(4-methyl-2-(5-(trifluoromethyl)pyridin-2-yl)quinolin-7-yl)acrylamide] | ≤ 1000 nM
28 | COC[C@H](C)NC(=O)c1cnc2c(N3CCC(CC(F)(F)F)CC3)cc(OC)cc2c1 [I-253, (S)-6-methoxy-N-(1-methoxypropan-2-yl)-8-(4-(2,2,2-trifluoroethyl)piperidin-1-yl)quinoline-3-carboxamide] | 1000 to 5000 nM
29 | Cc1cc(-c2ccc(C(F)(F)F)cc2)nc2cc(-c3nnn[nH]3)ccc12 [I-254, 4-Methyl-7-(1H-tetrazol-5-yl)-2-(4-(trifluoromethyl)phenyl)quinoline] | 5000 to 10000 nM
30 | Cc1cc(-c2ccc(OC(F)(F)F)cc2)nc2cc(C(=O)N[C@H](C)CO)ccc12 [I-255, (R)—N-(1-hydroxypropan-2-yl)-4-methyl-2-(4-(trifluoromethoxy)phenyl)quinoline-7-carboxamide] | 1000 to 5000 nM
31 | Cc1cc(-c2ccc(OC(F)(F)F)cc2)nc2cc(C(=O)O)ccc12 [I-256, 4-methyl-2-(4-(trifluoromethoxy)phenyl)quinoline-7-carboxylic acid] | 1000 to 5000 nM
32 | C=CC(=O)Nc1c(C)nc2c(-c3ccc(C(C)(C)C)cc3)nccn12 [I-257, N-(8-(4-(tert-butyl)phenyl)-2-methylimidazo[1,2-a]pyrazin-3-yl)acrylamide] | 5000 to 10000 nM
33 | Cc1cc(-c2ccc(C(F)(F)F)cc2)nc2cc(C(N)=O)ccc12 [I-258, 4-Methyl-2-(4-(trifluoromethyl)phenyl)quinoline-7-carboxamide] | 1000 to 5000 nM
34 | Cc1cc(-c2ccc(C(F)(F)F)cc2)nc2cc(C(=O)NCCO)ccc12 [I-259, N-(2-hydroxyethyl)-4-methyl-2-(4-(trifluoromethyl)phenyl)quinoline-7-carboxamide] | ≤ 1000 nM
35 | Cc1cc(-c2ccc(C(F)(F)F)cc2)nc2cc(C(=O)NC(C)CO)ccc12 (centres unmarked) [I-260, N-(1-hydroxypropan-2-yl)-4-methyl-2-(4-(trifluoromethyl)phenyl)quinoline-7-carboxamide] | ≤ 1000 nM
36 | Cc1cc(-c2ccc(C(F)(F)F)cc2)nc2cc(C(=O)N[C@H](C)CO)ccc12 [I-261, (R)—N-(1-hydroxypropan-2-yl)-4-methyl-2-(4-(trifluoromethyl)phenyl)quinoline-7-carboxamide] | ≤ 1000 nM
37 | Cc1cc(-c2ccc(C(F)(F)F)cc2)nc2cc(C(=O)N[C@@H](C)CO)ccc12 [I-262, (S)—N-(1-hydroxypropan-2-yl)-4-methyl-2-(4-(trifluoromethyl)phenyl)quinoline-7-carboxamide] | ≤ 1000 nM
38 | COC[C@H](C)NC(=O)c1ccc2c(C)cc(-c3ccc(C(F)(F)F)cc3)nc2c1 [I-263, (S)—N-(1-methoxypropan-2-yl)-4-methyl-2-(4-(trifluoromethyl)phenyl)quinoline-7-carboxamide] | ≤ 1000 nM
39 | Cc1cc(-c2ccc(C(F)(F)F)cc2)nc2cc(C(=O)N[C@@H](C)COC(F)(F)F)ccc12 [I-264, (S)-4-methyl-N-(1-(trifluoromethoxy)propan-2-yl)-2-(4-(trifluoromethyl)phenyl)quinoline-7-carboxamide] | 1000 to 5000 nM
40 | CC[C@H](CO)NC(=O)c1ccc2c(C)cc(-c3ccc(C(F)(F)F)cc3)nc2c1 [I-265, (R)—N-(1-hydroxybutan-2-yl)-4-methyl-2-(4-(trifluoromethyl)phenyl)quinoline-7-carboxamide] | ≤ 1000 nM
41 | Cc1cc(-c2ccc(C(F)(F)F)cc2)nc2cc(C(=O)N[C@@H](C)c3cccc(C(=O)O)c3)ccc12 [I-267, (S)-3-(1-(4-methyl-2-(4-(trifluoromethyl)phenyl)quinoline-7-carboxamido)ethyl)benzoic acid] | ≤ 1000 nM
